Test results published in PMC11167047 (Cell Death Discovery, 2024).

Legend:
Experiment in all cases: kinome screen (33PanQinase)
Type in all cases: biochemical
[1] = target: T1, BRK (Homo sapiens, UniProt Q13882)
T1 construct: purchased Reaction Biology Europe GmbH (formerly ProQinase)
Protocol: (§1) The Kinome Screening was performed by Reaction Biology Europe GmbH (http://reactionbiology.com; Freiburg i. Br., Germany).

[2] = target: T2, CDK16/CycY (Homo sapiens, UniProt Q00536)
T2 construct: purchased Reaction Biology Europe GmbH (formerly ProQinase)
Protocol: as §1

[3] = target: T3, CDK3/CycC (Homo sapiens, UniProt Q00526)
T3 construct: purchased Reaction Biology Europe GmbH (formerly ProQinase)
T3 sequence (Q00526 whole entry): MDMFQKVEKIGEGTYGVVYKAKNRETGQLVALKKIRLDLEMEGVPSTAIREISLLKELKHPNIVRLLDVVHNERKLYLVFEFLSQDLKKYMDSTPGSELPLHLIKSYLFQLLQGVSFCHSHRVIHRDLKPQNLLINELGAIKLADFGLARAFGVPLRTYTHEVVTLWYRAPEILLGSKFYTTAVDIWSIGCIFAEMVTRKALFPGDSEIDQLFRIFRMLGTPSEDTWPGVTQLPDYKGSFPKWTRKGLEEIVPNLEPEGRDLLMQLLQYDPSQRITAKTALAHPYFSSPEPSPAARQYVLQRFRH
T3 sequence (P24863 whole entry partner): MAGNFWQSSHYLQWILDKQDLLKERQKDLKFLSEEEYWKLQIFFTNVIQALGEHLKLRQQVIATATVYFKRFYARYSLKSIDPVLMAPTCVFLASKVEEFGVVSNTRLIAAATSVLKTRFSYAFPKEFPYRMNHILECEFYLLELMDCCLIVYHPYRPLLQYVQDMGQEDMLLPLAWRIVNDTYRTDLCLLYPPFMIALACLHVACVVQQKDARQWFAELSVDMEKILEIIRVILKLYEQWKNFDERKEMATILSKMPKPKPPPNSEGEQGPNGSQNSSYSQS
Protocol: as §1

[4] = target: T4, CDK7/CycH/MAT1 (Homo sapiens, UniProt P50613)
T4 construct: purchased Reaction Biology Europe GmbH (formerly ProQinase)
Protocol: as §1

[5] = target: T5, DAPK3 (Homo sapiens, UniProt O43293)
T5 construct: purchased Reaction Biology Europe GmbH (formerly ProQinase)
Protocol: as §1

[6] = target: T6, EIF2AK3 (Homo sapiens, UniProt Q9NZJ5)
T6 construct: purchased Reaction Biology Europe GmbH (formerly ProQinase)
T6 sequence (Q9NZJ5 30-1116): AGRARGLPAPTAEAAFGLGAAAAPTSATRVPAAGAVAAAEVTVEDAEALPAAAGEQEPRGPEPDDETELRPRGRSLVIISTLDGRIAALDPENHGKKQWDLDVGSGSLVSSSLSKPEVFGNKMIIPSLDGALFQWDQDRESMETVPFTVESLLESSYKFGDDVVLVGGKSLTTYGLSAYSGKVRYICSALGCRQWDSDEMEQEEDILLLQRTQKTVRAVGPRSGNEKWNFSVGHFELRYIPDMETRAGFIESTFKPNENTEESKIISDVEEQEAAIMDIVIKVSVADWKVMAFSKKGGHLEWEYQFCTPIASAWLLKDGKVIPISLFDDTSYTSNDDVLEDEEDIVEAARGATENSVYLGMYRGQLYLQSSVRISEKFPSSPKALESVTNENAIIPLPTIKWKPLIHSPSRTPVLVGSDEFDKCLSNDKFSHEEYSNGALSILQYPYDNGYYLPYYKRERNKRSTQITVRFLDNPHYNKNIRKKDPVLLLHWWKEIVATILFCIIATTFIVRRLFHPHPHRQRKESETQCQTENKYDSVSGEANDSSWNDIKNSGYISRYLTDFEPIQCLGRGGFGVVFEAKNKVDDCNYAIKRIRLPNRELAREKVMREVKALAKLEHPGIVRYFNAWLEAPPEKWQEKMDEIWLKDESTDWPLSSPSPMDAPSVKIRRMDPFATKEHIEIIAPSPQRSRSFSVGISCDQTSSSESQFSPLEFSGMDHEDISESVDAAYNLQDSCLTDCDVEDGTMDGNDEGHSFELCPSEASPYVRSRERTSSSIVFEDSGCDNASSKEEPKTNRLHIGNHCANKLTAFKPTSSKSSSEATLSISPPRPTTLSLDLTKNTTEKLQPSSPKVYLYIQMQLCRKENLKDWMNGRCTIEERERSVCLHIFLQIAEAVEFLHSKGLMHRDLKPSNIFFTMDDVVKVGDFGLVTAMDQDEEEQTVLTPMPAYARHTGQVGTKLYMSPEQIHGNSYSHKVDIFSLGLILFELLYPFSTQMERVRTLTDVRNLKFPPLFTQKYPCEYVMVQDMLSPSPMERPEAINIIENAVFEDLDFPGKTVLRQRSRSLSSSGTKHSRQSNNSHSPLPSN
Protocol: as §1

[7] = target: T7, MAP3K9 (Homo sapiens, UniProt P80192)
T7 construct: purchased Reaction Biology Europe GmbH (formerly ProQinase)
T7 sequence (P80192 whole entry): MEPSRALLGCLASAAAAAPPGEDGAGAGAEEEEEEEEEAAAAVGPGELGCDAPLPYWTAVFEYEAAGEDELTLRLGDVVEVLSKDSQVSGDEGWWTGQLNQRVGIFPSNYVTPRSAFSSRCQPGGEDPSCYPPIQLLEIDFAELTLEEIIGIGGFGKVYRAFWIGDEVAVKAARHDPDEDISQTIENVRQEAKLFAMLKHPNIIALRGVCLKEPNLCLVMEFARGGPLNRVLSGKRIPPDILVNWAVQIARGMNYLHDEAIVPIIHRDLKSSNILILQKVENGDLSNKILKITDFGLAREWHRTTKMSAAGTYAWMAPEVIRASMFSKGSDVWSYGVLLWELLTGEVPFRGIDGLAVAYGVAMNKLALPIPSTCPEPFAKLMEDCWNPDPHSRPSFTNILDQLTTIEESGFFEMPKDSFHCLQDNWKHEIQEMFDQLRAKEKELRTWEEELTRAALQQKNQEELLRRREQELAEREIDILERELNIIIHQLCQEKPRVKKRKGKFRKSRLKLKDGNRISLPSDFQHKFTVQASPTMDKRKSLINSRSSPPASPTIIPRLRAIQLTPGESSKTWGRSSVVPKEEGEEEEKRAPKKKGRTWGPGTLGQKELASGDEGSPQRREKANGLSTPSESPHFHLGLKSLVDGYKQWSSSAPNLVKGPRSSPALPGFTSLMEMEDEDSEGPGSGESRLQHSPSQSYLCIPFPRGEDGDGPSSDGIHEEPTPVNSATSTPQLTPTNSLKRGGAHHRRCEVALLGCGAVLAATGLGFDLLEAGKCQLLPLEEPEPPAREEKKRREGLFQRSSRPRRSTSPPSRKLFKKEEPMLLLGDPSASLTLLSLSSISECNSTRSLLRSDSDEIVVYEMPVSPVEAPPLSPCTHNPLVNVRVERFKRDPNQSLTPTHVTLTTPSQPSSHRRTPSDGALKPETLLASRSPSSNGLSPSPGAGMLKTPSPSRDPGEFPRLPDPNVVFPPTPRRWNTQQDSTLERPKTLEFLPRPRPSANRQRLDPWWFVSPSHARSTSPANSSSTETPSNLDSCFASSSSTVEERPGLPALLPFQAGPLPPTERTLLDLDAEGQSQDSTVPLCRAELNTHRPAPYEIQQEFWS
Protocol: as §1

[8] = target: T8, MKNK1 (Homo sapiens, UniProt Q9BUB5)
T8 construct: purchased Reaction Biology Europe GmbH (formerly ProQinase)
Protocol: as §1

[9] = target: T9, MKNK2 (Homo sapiens, UniProt Q9HBH9)
T9 construct: purchased Reaction Biology Europe GmbH (formerly ProQinase)
T9 sequence (Q9HBH9 whole entry): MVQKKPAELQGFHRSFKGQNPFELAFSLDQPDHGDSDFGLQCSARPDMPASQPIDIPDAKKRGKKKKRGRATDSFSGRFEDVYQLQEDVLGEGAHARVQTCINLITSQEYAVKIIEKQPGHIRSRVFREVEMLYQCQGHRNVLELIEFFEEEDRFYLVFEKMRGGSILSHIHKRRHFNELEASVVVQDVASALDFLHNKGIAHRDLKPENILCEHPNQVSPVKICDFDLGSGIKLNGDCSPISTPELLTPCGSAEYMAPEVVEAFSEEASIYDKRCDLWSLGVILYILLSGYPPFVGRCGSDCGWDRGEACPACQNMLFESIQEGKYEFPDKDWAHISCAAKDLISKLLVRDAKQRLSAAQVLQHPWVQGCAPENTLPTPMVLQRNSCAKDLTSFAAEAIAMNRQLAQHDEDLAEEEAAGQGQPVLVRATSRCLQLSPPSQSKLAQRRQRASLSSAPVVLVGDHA
Protocol: as §1

[10] = target: T10, MTOR (Homo sapiens, UniProt P42345)
T10 construct: purchased Reaction Biology Europe GmbH (formerly ProQinase)
Protocol: as §1

[11] = target: T11, NEK2 (Homo sapiens, UniProt P51955)
T11 construct: purchased Reaction Biology Europe GmbH (formerly ProQinase)
T11 sequence (P51955 1-445): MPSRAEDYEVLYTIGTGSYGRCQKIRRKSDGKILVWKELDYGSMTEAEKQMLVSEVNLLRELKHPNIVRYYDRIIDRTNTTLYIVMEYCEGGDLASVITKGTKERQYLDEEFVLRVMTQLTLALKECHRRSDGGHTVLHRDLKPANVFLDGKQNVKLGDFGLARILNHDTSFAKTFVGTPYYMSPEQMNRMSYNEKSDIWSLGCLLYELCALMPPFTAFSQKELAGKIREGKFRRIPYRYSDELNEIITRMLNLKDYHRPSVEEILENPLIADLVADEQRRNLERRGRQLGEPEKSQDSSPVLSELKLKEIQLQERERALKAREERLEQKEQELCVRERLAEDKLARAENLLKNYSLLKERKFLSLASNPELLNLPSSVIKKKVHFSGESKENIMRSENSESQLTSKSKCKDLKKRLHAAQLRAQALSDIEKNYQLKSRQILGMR
Protocol: as §1

[12] = target: T12, PDGFRα (Homo sapiens, UniProt P16234)
T12 construct: purchased Reaction Biology Europe GmbH (formerly ProQinase)
T12 sequence (P16234 24-1089): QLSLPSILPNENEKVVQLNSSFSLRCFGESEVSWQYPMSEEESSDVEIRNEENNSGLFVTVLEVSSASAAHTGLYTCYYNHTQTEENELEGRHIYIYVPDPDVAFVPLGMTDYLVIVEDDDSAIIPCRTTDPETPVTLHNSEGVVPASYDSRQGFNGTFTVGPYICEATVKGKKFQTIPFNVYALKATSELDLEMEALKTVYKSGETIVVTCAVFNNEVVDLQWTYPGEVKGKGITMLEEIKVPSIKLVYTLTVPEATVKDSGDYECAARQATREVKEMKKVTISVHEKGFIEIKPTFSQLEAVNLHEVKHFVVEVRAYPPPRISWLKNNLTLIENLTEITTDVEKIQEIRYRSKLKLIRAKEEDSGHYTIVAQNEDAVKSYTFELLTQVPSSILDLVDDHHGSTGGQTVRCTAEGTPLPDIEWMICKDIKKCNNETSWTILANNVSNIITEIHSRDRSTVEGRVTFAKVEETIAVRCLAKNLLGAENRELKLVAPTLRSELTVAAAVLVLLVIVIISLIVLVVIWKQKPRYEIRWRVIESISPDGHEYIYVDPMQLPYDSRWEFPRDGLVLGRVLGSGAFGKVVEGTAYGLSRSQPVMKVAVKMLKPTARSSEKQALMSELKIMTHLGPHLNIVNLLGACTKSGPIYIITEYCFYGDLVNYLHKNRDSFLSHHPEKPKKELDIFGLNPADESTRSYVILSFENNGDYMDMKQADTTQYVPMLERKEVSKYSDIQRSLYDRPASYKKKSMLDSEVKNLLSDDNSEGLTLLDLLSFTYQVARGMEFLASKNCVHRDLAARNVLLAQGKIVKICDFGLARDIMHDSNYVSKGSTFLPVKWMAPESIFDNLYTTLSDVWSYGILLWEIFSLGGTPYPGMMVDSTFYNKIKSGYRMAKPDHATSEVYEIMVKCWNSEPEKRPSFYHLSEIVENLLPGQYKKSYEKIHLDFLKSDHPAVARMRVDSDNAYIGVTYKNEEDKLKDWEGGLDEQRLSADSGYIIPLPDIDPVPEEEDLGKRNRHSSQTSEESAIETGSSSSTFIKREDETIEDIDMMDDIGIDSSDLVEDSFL
Protocol: as §1

[13] = target: T13, PKCβ1 (Homo sapiens, UniProt P05771)
T13 construct: purchased Reaction Biology Europe GmbH (formerly ProQinase)
Protocol: as §1

[14] = target: T14, PRK2 (Homo sapiens, UniProt Q16513)
T14 construct: purchased Reaction Biology Europe GmbH (formerly ProQinase)
T14 sequence (Q16513 whole entry): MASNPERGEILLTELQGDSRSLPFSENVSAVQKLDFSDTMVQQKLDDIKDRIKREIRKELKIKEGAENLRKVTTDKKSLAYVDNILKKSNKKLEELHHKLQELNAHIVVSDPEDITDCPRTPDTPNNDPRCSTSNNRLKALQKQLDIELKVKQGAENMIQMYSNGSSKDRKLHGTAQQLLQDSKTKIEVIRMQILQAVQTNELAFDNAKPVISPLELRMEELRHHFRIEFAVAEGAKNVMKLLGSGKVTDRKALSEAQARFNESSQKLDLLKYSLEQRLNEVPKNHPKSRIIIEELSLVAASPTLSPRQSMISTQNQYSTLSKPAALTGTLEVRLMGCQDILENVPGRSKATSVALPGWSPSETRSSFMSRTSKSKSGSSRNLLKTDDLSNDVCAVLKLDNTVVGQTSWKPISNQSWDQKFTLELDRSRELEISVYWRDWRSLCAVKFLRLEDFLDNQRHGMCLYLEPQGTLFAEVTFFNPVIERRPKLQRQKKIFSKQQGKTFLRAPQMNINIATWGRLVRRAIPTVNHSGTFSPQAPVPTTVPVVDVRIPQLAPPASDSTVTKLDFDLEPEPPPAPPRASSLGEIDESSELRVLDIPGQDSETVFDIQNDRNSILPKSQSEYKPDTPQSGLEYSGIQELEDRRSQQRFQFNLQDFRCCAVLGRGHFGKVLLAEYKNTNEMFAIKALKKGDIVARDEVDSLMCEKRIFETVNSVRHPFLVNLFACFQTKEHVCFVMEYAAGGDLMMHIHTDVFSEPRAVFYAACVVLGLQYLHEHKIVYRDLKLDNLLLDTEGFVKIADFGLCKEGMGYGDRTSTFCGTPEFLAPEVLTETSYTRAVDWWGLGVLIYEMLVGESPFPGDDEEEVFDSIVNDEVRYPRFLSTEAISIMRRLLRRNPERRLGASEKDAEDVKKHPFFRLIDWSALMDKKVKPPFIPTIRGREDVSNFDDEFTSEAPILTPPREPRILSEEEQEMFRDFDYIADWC
Protocol: as §1

[15] = target: T15, TSF1 (Homo sapiens, UniProt O75716)
T15 construct: purchased Reaction Biology Europe GmbH (formerly ProQinase)
T15 sequence (O75716 whole entry): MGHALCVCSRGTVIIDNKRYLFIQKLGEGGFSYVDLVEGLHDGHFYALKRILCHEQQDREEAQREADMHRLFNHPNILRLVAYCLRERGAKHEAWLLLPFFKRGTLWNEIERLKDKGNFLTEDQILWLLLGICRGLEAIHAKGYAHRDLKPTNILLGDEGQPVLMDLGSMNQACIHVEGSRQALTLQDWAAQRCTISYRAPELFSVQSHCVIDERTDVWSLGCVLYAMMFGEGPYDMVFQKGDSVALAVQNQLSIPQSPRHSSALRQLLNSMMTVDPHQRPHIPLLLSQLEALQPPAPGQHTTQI
Protocol: as §1

[16] = target: T16, WNK1 (Homo sapiens, UniProt Q9H4A3)
T16 construct: purchased Reaction Biology Europe GmbH (formerly ProQinase)
Protocol: as §1

T1 sequence (Q13882 whole entry): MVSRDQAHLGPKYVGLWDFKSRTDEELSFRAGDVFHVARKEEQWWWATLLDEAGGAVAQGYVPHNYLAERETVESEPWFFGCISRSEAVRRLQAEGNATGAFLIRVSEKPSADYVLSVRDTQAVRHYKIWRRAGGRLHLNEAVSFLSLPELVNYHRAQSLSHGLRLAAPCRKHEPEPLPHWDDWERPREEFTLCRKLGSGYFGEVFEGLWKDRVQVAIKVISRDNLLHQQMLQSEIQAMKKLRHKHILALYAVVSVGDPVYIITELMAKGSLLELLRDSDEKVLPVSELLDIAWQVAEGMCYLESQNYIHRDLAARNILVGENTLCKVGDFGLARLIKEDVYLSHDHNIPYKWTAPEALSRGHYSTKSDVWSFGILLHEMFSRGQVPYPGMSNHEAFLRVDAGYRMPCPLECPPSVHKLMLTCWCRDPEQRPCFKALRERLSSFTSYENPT

SMILES	residual kinase activity ([1]; 0.3 µM)	residual kinase activity ([2]; 0.3 µM)	residual kinase activity ([3]; 0.3 µM)	residual kinase activity ([4]; 0.3 µM)	residual kinase activity ([5]; 0.3 µM)	residual kinase activity ([6]; 0.3 µM)	residual kinase activity ([7]; 0.3 µM)	residual kinase activity ([8]; 0.3 µM)	residual kinase activity ([9]; 0.3 µM)	residual kinase activity ([10]; 0.3 µM)	residual kinase activity ([11]; 0.3 µM)	residual kinase activity ([12]; 0.3 µM)	residual kinase activity ([13]; 0.3 µM)	residual kinase activity ([14]; 0.3 µM)	residual kinase activity ([15]; 0.3 µM)	residual kinase activity ([16]; 0.3 µM)	further results
COc1ccnc2[nH]cc(-c3cc(N)nc(N)c3)c12 [meriolin 16]	85 % of control	16 % of control	20 % of control	6 % of control	51 % of control	90 % of control	80 % of control	70 % of control	62 % of control	105 % of control	96 % of control	60 % of control	50 % of control	42 % of control	104 % of control	100 % of control	residual kinase activity ([1]; 0.03 µM): 91 % of control; residual kinase activity ([2]; 0.03 µM): 64 % of control; residual kinase activity ([3]; 0.03 µM): 71 % of control; residual kinase activity ([4]; 0.03 µM): 44 % of control; residual kinase activity ([5]; 0.03 µM): 98 % of control; residual kinase activity ([6]; 0.03 µM): 87 % of control; residual kinase activity ([7]; 0.03 µM): 95 % of control; residual kinase activity ([8]; 0.03 µM): 97 % of control; residual kinase activity ([9]; 0.03 µM): 93 % of control; residual kinase activity ([10]; 0.03 µM): 91 % of control; residual kinase activity ([11]; 0.03 µM): 103 % of control; residual kinase activity ([12]; 0.03 µM): 89 % of control; residual kinase activity ([13]; 0.03 µM): 103 % of control; residual kinase activity ([14]; 0.03 µM): 90 % of control; residual kinase activity ([15]; 0.03 µM): 109 % of control; residual kinase activity ([16]; 0.03 µM): 101 % of control
c1ccc(CNc2cc(-c3c[nH]c4ncccc34)ccn2)cc1 [meriolin 36]	66 % of control	17 % of control	9 % of control	7 % of control	80 % of control	81 % of control	57 % of control	48 % of control	16 % of control	78 % of control	95 % of control	25 % of control	53 % of control	8 % of control	57 % of control	107 % of control	residual kinase activity ([1]; 3 µM): 18 % of control; residual kinase activity ([2]; 3 µM): 3 % of control; residual kinase activity ([3]; 3 µM): 3 % of control; residual kinase activity ([4]; 3 µM): 2 % of control; residual kinase activity ([5]; 3 µM): 25 % of control; residual kinase activity ([6]; 3 µM): 74 % of control; residual kinase activity ([7]; 3 µM): 12 % of control; residual kinase activity ([8]; 3 µM): 16 % of control; residual kinase activity ([9]; 3 µM): 3 % of control; residual kinase activity ([10]; 3 µM): 24 % of control; residual kinase activity ([11]; 3 µM): 72 % of control; residual kinase activity ([12]; 3 µM): 8 % of control; residual kinase activity ([13]; 3 µM): 9 % of control; residual kinase activity ([14]; 3 µM): 0 % of control; residual kinase activity ([15]; 3 µM): 8 % of control; residual kinase activity ([16]; 3 µM): 98 % of control
